These results are taken from patent US20250308633A1, “Methods Regarding the Treatment or Prevention of Diseases Including Cancer by Modulating Transcriptional Networks Controlling MET and EMT” (Yale University, priority 2024, published 2025).

The structures appear in SMILES notation.

For the test, the target named is T1, ESRRA (Homo sapiens, UniProt P11474).
T1 construct: endogenous in cells; host or cells: HCC38 CD44hi cells (FACS-sorted from bulk HCC38, 2D culture)
T1 sequence (P11474 1-423): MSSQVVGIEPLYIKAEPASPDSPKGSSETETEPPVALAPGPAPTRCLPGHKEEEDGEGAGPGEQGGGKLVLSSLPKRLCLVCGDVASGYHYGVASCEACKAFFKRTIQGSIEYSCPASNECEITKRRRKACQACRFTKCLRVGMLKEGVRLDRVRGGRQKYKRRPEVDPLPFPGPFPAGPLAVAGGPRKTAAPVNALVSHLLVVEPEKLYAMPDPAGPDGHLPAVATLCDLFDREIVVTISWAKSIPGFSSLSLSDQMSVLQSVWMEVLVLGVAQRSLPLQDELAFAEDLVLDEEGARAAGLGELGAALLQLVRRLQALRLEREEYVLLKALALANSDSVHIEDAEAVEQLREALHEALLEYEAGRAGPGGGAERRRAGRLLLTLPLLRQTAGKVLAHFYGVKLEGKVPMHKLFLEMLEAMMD
Briefly: Western blot of CDH1 expression after ESRRA inhibitor (C14) treatment of HCC38 CD44hi cells. In kind it is cell-based. The note with it: 2D cultured HCC38 CD44hi cells; 5 and 10 M; 48 hours post-treatment; vs DMSO vehicle; n=3 biological replicates; p≤0.05. How it is done:
In parallel, HCC38 CD44^hi cells were also treated with an ESRRA inhibitor ((2-Aminophenyl)(1-(3-isopropylphenyl)-1H-1,2,3-triazol-4-yl)methanone) (BLD Pharm, China, Cat no. BD01201330) (referred to as Compound 14 (C14) herein) at 5 and 10 M concentrations. Vehicle controls were treated with DMSO. Cells were harvested 48 hours post-treatment and processed for protein extraction which were studied for changes in ESRRA and CDH1 expression using western blot (n=3 biological replicates).
Western Blotting: Proteins were extracted from control and treated cells using ice cold modified RIPA buffer (50 mM Tris-HCl pH 7.5, 150 mM NaCl, 1 mM EDTA, 1 mM EGTA, 1% Triton X-100, 0.1% SDS with supplemented with 1× protease and phosphatase inhibitor cocktails). The lysates were sonicated using a QSONICA Q55 probe sonicator at […] for 20 seconds in an ice bath. This whole cell lysate was centrifuged at 14,000×g for 10 min at 4° C. and stored in −80° C. until further use. Proteins were quantified using the Pierce™ BCA Protein Assay Kit (Cat. 23227, Thermo Fisher Scientific, USA) as per the manufacturer's instructions. […]
Next, membranes were incubated with appropriate HRP-conjugated secondary antibodies. […] The signal intensity of the bands in western blots was quantified using Image Studio Lite version 5.2 (LI-COR Biotechnology, USA).

For `CC(C)c1cccc(-n2cc(C(=O)c3ccccc3N)nn2)c1` [ESRRA antagonist, (2-Aminophenyl)(1-(3-isopropylphenyl)-1H-1,2,3-triazol-4-yl)methanone], the “CDH1 expression (western blot, relative fold-change)” value is reported as “significant increase”.
